Measurements as given in patent US7056679B2, “Target specific screening and its use for identifying target binders” (Antyra, Inc., priority 2001, dated 2006).

Columns and labels:
[1] = system: lactate dehydrogenase (LDH); test: ELISA analysis of phage on LDH (irrelevant, non-specific target); type: binding; conditions: peptide binding to LDH polypeptide (non-specific binding); phage ELISA units read at 405 nm
How it was run: (§1)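 Phage from picked clones (M13KO7 helper) bound 2 hr at room temperature to wells coated overnight at 4 °C with 500 ng/well anti-ETAG antibody or LDH, milk-blocked. Detection with HRP-anti-M13 (1:3000) and ABTS at 405 nm; positive when A405 ≥2-fold over background.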

[2] = target: T1, DGI-2 (Homo sapiens, UniProt Q15004); test: ELISA analysis of phage on DGI-2 polypeptide (specific binding); conditions: for DGI-2 (OD): binding to DGI-2 polypeptide (specific binding), phage ELISA units read at 405 nm; for DGI-2/LDH (OD): ratio of specific binding to non-specific binding
T1 construct: encompassed the entire DGI-2 open reading frame (ORF); His-tag of vector pIVEX2.3-MCS (inferred from the vector and from the reverse primer lacking a stop codon); made in house; host or cells: cell-free in vitro translation (Rapid Translation System RTS, Roche; E. coli lysate)
T1 sequence (Q15004 1-111): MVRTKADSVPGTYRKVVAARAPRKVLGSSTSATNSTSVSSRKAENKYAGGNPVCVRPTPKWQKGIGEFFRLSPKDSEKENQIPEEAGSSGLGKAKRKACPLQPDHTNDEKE
How it was run: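 Recombinant DGI-2 from in vitro translation, LDH (non-specific) and controls were coated at 500 ng/well and blocked with 2% milk-PBS. Phage from individual clones bound for 2 hr at room temperature, then anti-M13-HRP with ABTS was read at 405 nm; a clone counted as positive at ≥2-fold over background.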

[3] = system: E-tag antibody; test: ELISA analysis of phage on antibody raised against ETAG (positive control); conditions: peptide binding to E-tag antibody; phage ELISA units read at 405 nm
How it was run: as §1

LDH (OD) [1] [OD] | DGI-2 (OD) [2] [OD] | DGI-2/LDH (OD) [2] | Substance | ETAG (OD) [3] [OD]
1.0 | 6.7 | 6.4 | QVGGMTQVGATVLSVVTGRGSCDGEDAWYPPGVTVGLGLC (DGI-2-40F-4-F97; listed as Escherichia coli) | 14.0
0.9 | 1.3 | 1.4 | RCFQDGRMLALSPTYLIRRSVSPLVVGPLPTP (DGI-2-40F-3-A24; listed as Escherichia coli) | 11.7
1.2 | 1.7 | 1.4 | RDHRYVGWGRATFRHDQSVW (DGI-2-20F-PP-H1; listed as Escherichia coli) | 1.4
1.1 | 7.6 | 7.1 | RDTMCGSVSWGIPGCEYSGM (DGI-2-20R-4-G122; listed as Escherichia coli) | 13.9
1.1 | 6.2 | 5.8 | RDTTSQWSWISRGWEFPGWR (DGI-2-20R-3-C2; listed as Escherichia coli) | 11.9
0.9 | 6.1 | 6.6 | RERWGTAWNLWTEGVVDVRP (DGI-2-20F-3-B5; listed as Escherichia coli) | 16.4
0.8 | 2.1 | 2.6 | RFWSVSYQGGRVMCREWGYCLPI (DGI-2-40F-3-C92; listed as Escherichia coli) | 9.8
1.1 | 3.4 | 3.0 | RGSLLLTLPRLSGAVGTAYG (DGI-2-20F-PP-B3; listed as Escherichia coli) | 11.7
0.8 | 1.6 | 1.9 | RGVNSDMPRLYICRADGQGQ (DGI-2-20F-PP-H6; listed as Escherichia coli) | 18.9
1.1 | 2.0 | 1.9 | RISVGQCGTSRCGGGRRGGG (DGI-2-20F-PP-D1; listed as Escherichia coli) | 3.0
1.0 | 8.4 | 8.6 | RKGWGVFCIPGLRFCDWSDP (DGI-2-20R-3-B4; listed as Escherichia coli) | 17.4
1.0 | 2.9 | 3.0 | RMYNCHYIERLYDWHAGRJLLQDPA (RMYNCHYIERLYDWHAGRILLQDPA; not fully specified; non-natural residue J; DGI-2-20C-4-E926; listed as Escherichia coli) | 17.4
0.9 | 3.8 | 4.1 | RNWLDKDCVWMGDCGARAGE (DGI-2-20F-4-E3; listed as Escherichia coli) | 16.9
1.0 | 4.7 | 4.7 | RPVVCLAGLTLAQFGWVFPGWRGWS (DGI-2-20C-3-C1039; listed as Escherichia coli) | 11.8
1.1 | 2.3 | 2.2 | RQRSGGRWVVDRVTRVASTSP (DGI-2-20F-PP-B12; listed as Escherichia coli) | 1.9
1.0 | 2.4 | 2.4 | RRFVRCSVPVALRSAVPVSV (DGI-2-20F-PP-A10; listed as Escherichia coli) | 16.3
1.1 | 9.6 | 8.8 | RRGVCEIFTGWCVGQTNERP (DGI-2-20R-4-H626; listed as Escherichia coli) | 13.5
1.1 | 6.2 | 5.9 | RRILPWSFPGCGRMC (DGI-2-20R-3-A10; listed as Escherichia coli) [DGJ-2-20R-3-A10] | 16.4
0.8 | 0.9 | 1.1 | RRTQPAYRSGADDRTSGFYCYVTSALSAGAWMPFLPRRLA (DGI-2-40F-3-A12; listed as Escherichia coli) | 4.6
0.8 | 1.1 | 1.4 | RRTSADTDQLSRWEGAQAFSSLRSALSERLDSLRPGLPPS (DGI-2-40F-3-D9; listed as Escherichia coli) | 15.8

LDH (OD) [1] [OD] | DGI-2 (OD) [2] [OD] | DGI-2/LDH (OD) [2] | Substance | ETAG (OD) [3] [OD]
1.1 | 6.9 | 6.4 | RSIRLQLIDEACQFFDGLCT (DGI-2-20R-3-A8; listed as Escherichia coli) | 15.3
0.8 | 4.7 | 5.7 | RSQVRVVSRERSTPVLIHIRIECLLFSGWCVTSGSDEGVVWG [DGI-2-40F-4-F122] | 8.1
0.9 | 1.0 | 1.2 | RSRSSSGASGSMLRVQNHMVLGSWMVRQPMGSMTPFHGHG (DGI-2-40F-3-B5; listed as Escherichia coli) | 9.2
1.1 | 3.3 | 2.9 | RSYPRLCKQKGGVIGRMLPG (DGI-2-20F-PP-B2; listed as Escherichia coli) | 35.9
1.0 | 1.4 | 1.4 | RTLFINGGCCGKGSGGGRPL (DGI-2-20F-PP-G1; listed as Escherichia coli) | 21.8
1.1 | 2.7 | 2.6 | RVSYEMLGRRRRSMHGSSMR (DGI-2-20F-PP-A4; listed as Escherichia coli) | 6.6
1.0 | 3.8 | 3.9 | RWSICRGLQYSIPGCAVEDLSDVMA (DGI-2-20C-4-H316; listed as Escherichia coli) | 7.2
1.0 | 1.6 | 1.6 | RWSLPAYLCRFVSQASCNSR (DGI-2-20R-3-C12; listed as Escherichia coli) | 14.6
1.0 | 2.5 | 2.6 | S#ARSLMTGVVAVCIVWRGP (SARSLMTGVVAVCIVWRGP; DGI-2-20F-PP-E8; listed as Escherichia coli) | 36.3
0.9 | 2.0 | 2.2 | SAFGCPLPRALGGGGARFYA (DGI-2-20F-PP-E11; listed as Escherichia coli) | 15.2
0.9 | 3.0 | 3.2 | SIILAGCVWVMPCGQNLGGV (DGI-2-20F-PP-C4; listed as Escherichia coli) | 36.1
1.0 | 2.7 | 2.7 | SIVSSRSGWQRGWIAWEAPV (SIVSSRSGWQRGWIAWFAPV; DGI-2-20F-PP-E5; listed as Escherichia coli) | 30.4
1.1 | 6.6 | 6.0 | SLECWAMPGMVVRLVGCDGP (DGI-2-20R-4-H112; listed as Escherichia coli) | 12.3
1.2 | 2.8 | 2.4 | SLFERSARSRYHGSPDCNGS (DGI-2-20F-PP-A3; listed as Escherichia coli) | 12.9
1.0 | 2.4 | 2.5 | SLLCVVCRPVSGGRALGGVP (DGI-2-20F-PP-B42; listed as Escherichia coli) | 21.5
1.0 | 2.2 | 2.1 | SLSLYWDAQVGCEVFWGYCV (DGI-2-20R-3-C10; listed as Escherichia coli) | 14.7
1.0 | 8.6 | 8.3 | SRELGKWGRLWQDWSSGNFS (DGI-2-20R-3-C11; listed as Escherichia coli) | 18.9
0.9 | 1.6 | 1.9 | SRGMAEAQFSAWPVLAVFPL (DGI-2-20F-PP-H8; listed as Escherichia coli) | 32.4
1.1 | 4.5 | 4.2 | SRPGWCSRGTAWGFPGCSSS (DGI-2-20R-3-C4; listed as Escherichia coli) | 19.1
